Results taken from patent US20210322327A1, “EXTRACELLULAR VESICLES COMPRISING STING-AGONIST” (Codiak BioSciences, Inc., priority 2018, published 2021).

Experiments:
[1] = test system: IFNβ, CXCL9, CXCL10, IFNγ gene expression; serum cytokines; test: Cytokine levels after single intratumoral dose in B16F10 tumor-bearing mice; assay type: in vivo, C57BL/6 mice; conditions: 20 μg single intratumoral dose, four hours post-injection
Method: Four groups of C57BL/6 mice (3-4 mice per group) were inoculated subcutaneously with 5×10^5 B16F10 tumor cells. Eight days post-inoculation the mice were injected with a single intratumoral dose of PBS, 20 μg of free ML RR-S2 CDA, 0.2 μg of free ML RR-S2 CDA, or 0.2 μg of ML RR-S2 CDA loaded in PTGFN-overexpressing exosomes (exo ML RR-S2 CDA). Four hours post-injection the tumors, draining lymph nodes, spleens, and serum were collected and cytokine levels were measured.
To confirm that the effects observed in FIGS. 20-23 were applicable to other STING agonists, B16F10 subcutaneous tumor-bearing mice were injected with 20 μg of free 3-3 cAIMPdFSH, 0.2 μg of free 3-3 cAIMPdFSH, or 0.2 μg of 3-3 cAIMPdFSH loaded in PTGFRN-overexpressing exosomes (exo 3-3 cAIMPdFSH).

STING pathway = STING pathway activation after intraperitoneal or intratumoral dose in B16F10 tumor-bearing mice; assay type: in vivo, C57BL/6 mice; conditions: 20 μg single IP dose
Method: Five groups of C57BL/6 mice (n=4 mice per group) were inoculated subcutaneously with 5×10^5 B16F10 murine melanoma cells. Eight days post-inoculation the mice were injected intraperitoneally (IP) with a single dose of either PBS, 20 μg ML RR-S2, 0.2 μg ML RR-S2, 0.2 μg ML RR-S2 loaded in PTGFRN-overexpressing exosomes (Exo STING IP), or intratumorally (IT) with a single dose of 0.2 μg ML RR-S2 loaded in PTGFRN-overexpressing exosomes (Exo STING IT). The exosome-encapsulated STING agonist formulations were loaded and quantitated as described in Example 1.

[2] = test system: B16F10 murine melanoma cells; test: B16F10 primary tumor and re-challenge, durable T cell responses; assay type: in vivo, C57BL/6 mice
Method: Six, nine, and twelve days post-inoculation, the tumors were injected intratumorally with PBS, exosomes, 100 μg of free ML RR-S2 CDA, or 0.2 μg 3-3 cAIMPdFSH loaded in PTGFRN-overexpressing exosomes. […] Five additional naïve mice were inoculated with the same tumor cell preparation and treated daily with PBS to ensure cell viability and growth kinetics. By day 37 (17 days post-challenge) all mice in the PBS group were sacrificed.

A20 lymphoma cells = test: CIVO intratumoral microinjection, cleaved caspase 3 staining; assay type: in vivo, BALB/cAnNHsd mice
Method: All experiments in mice were approved by IACUC Board of Presage Biosciences, Seattle, Wash. (Protocol number PR-001) and were performed at Presage in accordance with relevant guidelines and regulations. All relevant procedures were performed under anesthesia and all efforts were made to minimize pain and suffering. Female BALB/cAnNHsd mice (Envigo) with an average weight of 18 gm were used for experiments at 5-7 weeks of age. For generating A20 allografts, mice were inoculated with 1 million A20 cells in 100 μl inoculation volume.
CIVO intra-tumoral microinjections were performed as described in Klinghoffer et al. (2016) Science Translational Medicine. Briefly, mice (n=6 per time point, 4 and 24 hours) were enrolled in microinjection studies when implanted tumors reached the following approximate dimensions: 14 mm (length), 10 mm (width) and 7 mm (depth). […]
Images of every cell from each tissue section stained were captured by digital, automated, high-resolution whole-tissue scanning (3D Histech Panoramic 250 Flash). Tumor responses were quantified from image files from each tissue section using Presage's custom CIVO Analyzer image analysis platform. […] In order to mitigate the influence of pre-existing necrosis on biomarker measurements, injection sites that fall within largely acellular tumor regions are excluded prior to quantitative analysis. […]

[3] = test system: B16F10 murine melanoma cells; test: B16F10 melanoma tumor growth, intratumoral injection; assay type: in vivo, C57BL/6 mice; conditions: for tumor growth compared to PBS: day 25
Method: To test this hypothesis, C57BL/6 mice were inoculated subcutaneously with 5×10^5 B16F10 murine melanoma cells (n=5 mice per group). Five, eight, and eleven days post-inoculation the mice were injected intratumorally with PBS, 20 μg ML RR-S2, 0.2 μg ML RR-S2, or 0.2 μg ML RR-S2 loaded in PTGFRN-overexpressing exosomes Tumor volumes were measured daily until day 39, and animals were sacrificed when tumor volume reached 2000 mm^3.

Nc1ncnc2c1ncn2[C@@H]1O[C@@H]2COP(O)(=S)O[C@@H]3C(O)[C@@H](COP(O)(=S)O[C@H]2[C@H]1O)O[C@H]3n1cnc2c(N)ncnc21 (stereo partly drawn) [ML RR-S2 CDA]
IFNβ gene expression levels in the tumor [1]: higher than the 0.2 μg free STING agonist and PBS groups
IFNβ expression in tumor, pancreas and spleen (STING pathway): induced IFNβ expression in the tumor, pancreas, and spleen above the PBS-treated group
animals in which re-challenge tumor growth was not inhibited ([2]; 100 μg free group, re-challenged day 20, read day 37): 10 out of 10
animals that showed complete response (primary tumor) ([2]; 100 μg free, intratumoral days 6, 9, 12): ten
cleaved caspase 3 (CC3) (A20 lymphoma cells; high dose free (printed 2 g), four and 24 hours): dramatically increased at four and 24 hours
cleaved caspase 3 (CC3) (A20 lymphoma cells; low dose free (printed 200 ng)): modest
tumor growth compared to PBS ([3]; 0.2 μg intratumoral days 5, 8, 11): moderately potentiated
complete response (undetectable tumors at the site of inoculation) ([3]; 20 μg intratumoral): three out of five
tumor growth compared to PBS ([3]; 20 μg intratumoral days 5, 8, 11): almost completely eliminated
